Experimental data: patent US5436273A, “Psychoactive propargylamine derivatives used in the treatment of anxiety, psychotic states or aggression” (Lowchol Scientific, Inc., priority 1993, dated 1995)
Where two headings read alike, the source gives them in different places.

Key:
[1] = tested on: exploratory behavior in rats; assay: Inhibition of exploratory behavior in rats (hole poking); assay type: in vivo, Sprague-Dawley rats; conditions: for ED50: Rattus norvegicus, ip, 0.5 h, read-out: dose required to diminish by 50% the exploratory behavior
Experimental: 8. Inhibition of Exploratory Behavior in Rats (Hole Poking).
This test is done with Sprague-Dawley male rats of about 300 g. Activity is evaluated with a […] XYZ activity cage connected to a […] […] DCM-4. A perforated plate (16 holes of 2-5 cm diameter) is placed in the enclosure and on the activity case to register vertical activity. The number of times the rat placed his snout into the holes during a 10 minute period is recorded. The test was started 30 minutes after the interperitoneal injection of the compound to be studied.
The results which are reported in Table 8 are expressed in terms of the dose required to diminish by 50% the exploratory behavior, with reference to animals injected with the carrier only. Diazepam and buspirone are used as standards.

[2] = tested on: spontaneous motor activity in rats; assay: Inhibition of spontaneous motor activity in rats; assay type: in vivo, Sprague Dawley rats; conditions: for ED50: Rattus norvegicus, ip, 0.5 h, i.p., 30 minutes
Experimental: (§1) Two animals are studied simultaneously, one treated and one control. After a 2 hour period of acclimatization to the room, a first activity count of 10 minutes duration is perfomed. The compound to be studied is then administered i.p. and the spontaneous activity is reevaluated 30 minutes later over a period of 10 minutes.
5. Inhibition of Spontaneous Motor Activity in Rats
The method is the same as described above for mice, except that because of the size of the animals (Sprague Dawley rats; 300 g), the test and control animals are not evaluated simultaneously, but alternatively.

[3] = Effect on body temperature, buspirone in rats; assay type: in vivo, Sprague Dawley rats
Experimental: Female CD #1 mice (20-30 g) are used. Rectal temperature is recorded before and one hour after s.c. administration of the compound to be studied (N=8/doses×4 doses). The solvent used is sterile water for intravenous injection.
The results which are reported in Table 9 are expressed in terms of the variation of temperature for different doses. Buspirone was tested on Sprague Dawley rats.

[4] = Rotarod neurotoxicity test in mice; conditions: mouse; for TD50 at 0.5 h: in vivo, ip
[5] = tested on: conditioned avoidance response in rats; assay: Inhibition of conditioned avoidance response in rats; assay type: in vivo, Sprague Dawley rats
From the text: 6. Inhibition of Conditioned Avoidance Response in Rats
Male Sprague Dawley rats (200-250 g) are trained to avoid an electric foot shock, by continuously changing room with the appropriate visuals and auditory signals, in an automatic 2-way conditioned avoidance apparatus (Coulbourn Instrument Co.). Only the animals that perform at least a 70% avoidance (3 successive training sessions) are kept for the experiment.
The day of the experiment, the selected animals are submitted to a pre-treatment control session. The compound to be studied is then administered i.p. and the animals are placed back in the apparatus for evaluation 30 minutes later. Diazepam was used as a standard.

[6] = Acute toxicity test; conditions: mouse, in vivo
Experimental: CD #1 mice (20-30 g) are used for this test. The animals are individualy housed in glass beakers for a 2 hour period of acclimatization without food and water.

[7] = tested on: spontaneous motor activity in mice; assay: Inhibition of spontaneous motor activity in mice; assay type: in vivo, CD #1 mice; conditions: for ED50: Mus musculus, ip, 0.5 h
Experimental: 4. Inhibition of Spontaneous Motor Activity in Mice
Female CD #1 mice (20-30 g) are used for this experiment. The effect of the compound to be studied on spontaneous activity was evaluated by an automated […] XYZ system. This system allows the simultaneous quantification of the following parameters:
number of stereotypic movements;
number of vertical movements;
number of clockwise revolutions; and
number of counterclockwise revolutions.
as §1

[8] = tested on: righting reflex / ethanol narcosis in mice; assay: Potentiation of sleeping time induced by ethanol in mice; assay type: in vivo, CD #1 mice
Experimental: 7. Potentiation of Sleeping Time Induced by Ethanol in Mice
This test was done with male CD #1 mice of 25-35 g. The mice are injected intraperitoneally (8 mice per dose). A subhypnotic dose of ethanol (12 ml/kg of 50% ethanol solution) is administered orally 30 minutes later.
The loss of the righting reflex is evaluated, for each animal, 30 minutes after the administration of the alcohol. It is considered that there is a potentialization of ethanol narcosis if the righting time exceeded 30 seconds.
The results which are reported in Table 7 are expressed in terms of the percentage of animals displaying a loss of the righting reflex versus the administered dose. Chlorpromazine (5 mg/kg i.p.) is used as a standard.

[9] = tested on: isolation induced aggressive behavior in mice; assay: Inhibition of isolation induced fighting behavior in mice; assay type: in vivo, CD #1 mice; conditions: for ED50: Mus musculus, ip, 0.5 h, read-out: ED50 (dose that suppressed aggressive behavior in 50% of the animals); for inhibition of aggressive behavior (in words): mice
Experimental: 1. Inhibition of Isolation Induced Fighting Behavior in Mice
After this period of confinement, the animals usually develop a marked intraspecific aggressive behavior when they are placed in the same cage.
The compound to be studied is administered i.p. to the selected groups (N=8 pairs/dose×5 doses) and the aggressive behavior is tested again 30 minutes later. […] A one week washout period is allowed between treatments.

[10] = in vivo; conditions: mouse, ip
[11] = i.p., 30 minutes after administration, probit analysis

O=C1CC2(CCCC2)CC(=O)N1CCCCN1CCN(c2ncccn2)CC1 [Buspirone, reference compound]
ED50 ([1]; i.p., 30 minutes, rats): 2.8 ± 0.6 mg/kg
inhibition of exploratory behavior (in words) ([1]; rats): more potent, in this respect, than diazepam but they rapidly lose their ability to produce this effect after the first administration
inhibition of spontaneous motor activity (in words) [2]: inhibit spontaneous motor activity in mice and rats
ED50 ([2]; read-out: ED50, clockwise revolutions): 2.3 ± 0.9 mg/kg
ED50 ([2]; read-out: ED50, counterclockwise revolutions): 2.9 ± 0.7 mg/kg
ED50 ([2]; read-out: ED50, horizontal activity): 2.7 ± 0.8 mg/kg
ED50 ([2]; read-out: ED50, movement time): 3.2 ± 0.6 mg/kg
ED50 ([2]; read-out: ED50, number of movements): 5.3 ± 0.9 mg/kg
ED50 ([2]; read-out: ED50, number of stereotypic movements): 3.1 ± 0.8 mg/kg
ED50 ([2]; read-out: ED50, stereotypy time): 1.7 ± 0.6 mg/kg
ED50 ([2]; read-out: ED50, total distance): 2.8 ± 0.7 mg/kg
Temp. Difference from Control ([3]; dose 10, Sprague Dawley rats): -2.7
Temp. Difference from Control ([3]; dose 30, Sprague Dawley rats): -3.6
Temp. Difference from Control ([3]; dose 100, Sprague Dawley rats): -5.8
TD50 ([4]; rotarod, po): 135 mg/kg
inhibition of conditioned avoidance response (in words) ([5]; rats): inhibit conditioned avoidance in rats, but are less active than diazepam
LD50 ([6]; po, read-out: LD50): 622 mg/kg
inhibition of spontaneous motor activity (in words) [7]: inhibit spontaneous motor activity in mice and rats
ED50 ([7]; i.p., 30 minutes, read-out: ED50, clockwise revolutions): 17.9 ± 6.9 mg/kg
ED50 ([7]; i.p., 30 minutes, read-out: ED50, horizontal activity): 20.5 ± 16.7 mg/kg
ED50 ([7]; i.p., 30 minutes, read-out: ED50, movement time): 19.9 ± 8.9 mg/kg
ED50 ([7]; i.p., 30 minutes, read-out: ED50, stereotypy time): 22.7 ± 13.7 mg/kg
ED50 ([7]; i.p., 30 minutes, read-out: ED50, total distance): 22.6 ± 15.8 mg/kg
ED50, counterclockwise revolutions ([7]; i.p., 30 minutes): no dose-response
ED50, number of movements ([7]; i.p., 30 minutes): no dose-response
ED50, number of stereotypic movements ([7]; i.p., 30 minutes): no dose-response
ED50, vertical activity ([7]; i.p., 30 minutes): no dose-response
ED50, vertical movements ([7]; i.p., 30 minutes): no dose-response
ED50, vertical time ([7]; i.p., 30 minutes): no dose-response
potentiation of ethanol (in words) ([8]; subhypnotic dose of ethanol, mice): more effective than compound N^o 3

CN(C)CCCN1c2ccccc2Sc2ccc(Cl)cc21 [Chlorpromazine, reference compound]
percentage of animals displaying a loss of the righting reflex ([8]; 5 mg/kg i.p., with ethanol): 100%

CC(N)C#Cc1ccc(Cl)cc1 (centres unmarked) [Compound 1, 2-Amino-4-(p-chlorophenyl)-3-butyne]
ED50 [9, 11]: 12 mg/kg
inhibition of aggressive behavior (in words) ([9]; i.p.): particularly potent inhibitors
TD50 at 0.5 h [10]: ~65 mg/kg
LD50 ([6]; ip, probit analysis): 130 mg/kg

CC(N)C#Cc1ccc(C#N)cc1 (centres unmarked) [Compound 2, 2-Amino-4-(p-cyanophenyl)-3-butyne]
ED50 [9, 11]: 8 mg/kg
inhibition of aggressive behavior (in words) ([9]; i.p.): particularly potent inhibitors
TD50 at 0.5 h [10]: > 100 mg/kg
LD50 ([6]; ip, probit analysis): > 100 mg/kg

CN(CC#Cc1cccc(C(F)(F)F)c1)Cc1ccccc1 [Compound 5]
ED50 [9, 11]: 28 mg/kg
TD50 at 0.5 h [10]: 334 mg/kg
LD50 ([6]; ip): 416 mg/kg

CC(C#Cc1cccc(C(F)(F)F)c1)N(C)C (centres unmarked) [Compound 7]
ED50 [9, 11]: 38 mg/kg
TD50 at 0.5 h [10]: 153 mg/kg
LD50 ([6]; ip): 220 mg/kg

FC(F)(F)c1cccc(C#CCNCCc2ccccc2)c1 [Compound 9]
ED50 [9, 11]: 58 mg/kg
TD50 at 0.5 h [10]: 126 mg/kg
LD50 ([6]; ip): 252 mg/kg

C(#Cc1ccccc1)CN1CCCCC1 [Compound 11]
ED50 [9, 11]: 27 mg/kg
TD50 at 0.5 h [10]: 132 mg/kg
LD50 ([6]; ip): 188 mg/kg

CC(C)NC(C)C#Cc1ccccc1 (centres unmarked) [Compound 13]
ED50 [9, 11]: 27 mg/kg
LD50 ([6]; ip, probit analysis): 120 mg/kg

FC(F)(F)c1cccc(C#CCNc2ccco2)c1 [Compound 15]
ED50 [9, 11]: 19 mg/kg
TD50 at 0.5 h [10]: 193 mg/kg
LD50 ([6]; ip): 351 mg/kg

CC(C#Cc1ccccc1)NCc1ccccc1 (centres unmarked) [Compound 16]
ED50 [9, 11]: 101 mg/kg
TD50 at 0.5 h [10]: 170 mg/kg
LD50 ([6]; ip): 309 mg/kg

CC(C#Cc1cccc(C(F)(F)F)c1)NCc1ccccc1 (centres unmarked) [Compound 17]
ED50 [9, 11]: 50 mg/kg
TD50 at 0.5 h [10]: 123 mg/kg
LD50 ([6]; ip): 366 mg/kg

CC(C#Cc1ccccc1)Nc1ccco1 (centres unmarked) [Compound 18]
ED50 [9, 11]: 64 mg/kg
LD50 ([6]; ip, probit analysis): ~300 mg/kg

CC(C#Cc1cccc(C(F)(F)F)c1)Nc1ccco1 (centres unmarked) [Compound 19]
ED50 [9, 11]: 73 mg/kg

CC(N)C#Cc1ccc([N+](=O)[O-])cc1 (centres unmarked) [Compound 20]
ED50 [9, 11]: 10 mg/kg
TD50 at 0.5 h [10]: ~120 mg/kg
LD50 ([6]; ip): 152 mg/kg

CC(N)C#Cc1ccc(C(=O)N(C)C)cc1 (centres unmarked) [Compound 21]
LD50 ([6]; ip, probit analysis): < 100 mg/kg

CC(N)C#Cc1ccc(C(N)=O)cc1 (centres unmarked) [Compound 22]
LD50 ([6]; ip, probit analysis): > 100 mg/kg

COc1ccc(C#CC(C)N)cc1 (centres unmarked) [Compound 23]
ED50 [9, 11]: 24 mg/kg
LD50 ([6]; ip, probit analysis): > 100 mg/kg

CC(N)C#Cc1cccc(Cl)c1 (centres unmarked) [Compound 24]
TD50 at 0.5 h [10]: 50 mg/kg
LD50 ([6]; ip): > 100 mg/kg

CCC(N)C#Cc1ccccc1 (centres unmarked) [Compound 25]
ED50 [9, 11]: 16 mg/kg
TD50 at 0.5 h [10]: ≥ 84 mg/kg
LD50 ([6]; ip): 84 mg/kg

NCC#Cc1ccccc1 [Compound 26]
LD50 ([6]; ip, probit analysis): ≥ 100 mg/kg

CCNCC#Cc1ccccc1 [Compound 27]
ED50 [9, 11]: 17 mg/kg
TD50 at 0.5 h [10]: 88 mg/kg
LD50 ([6]; ip): 98 mg/kg

CC(N)C#Cc1ccccc1 (centres unmarked) [Compound 30]
ED50 [9, 11]: 15 mg/kg
TD50 at 0.5 h [10]: ~50 mg/kg
LD50 ([6]; ip): 66 mg/kg

CNC(C)C#Cc1ccccc1 (centres unmarked) [Compound 31]
ED50 [9]: 12 mg/kg
TD50 at 0.5 h [4]: ≥ 95 mg/kg
LD50 ([6]; ip, probit analysis): 95 mg/kg

CCNC(C)C#Cc1ccccc1 (centres unmarked) [Compound 32]
ED50 [9]: 23 mg/kg
TD50 at 0.5 h [4]: ≥ 120 mg/kg
LD50 ([6]; ip, probit analysis): 120 mg/kg

CCN(CC)C(C)C#Cc1ccccc1 (centres unmarked) [Compound 33]
ED50 [9, 11]: 44 mg/kg
TD50 at 0.5 h [10]: ≥ 88 mg/kg
LD50 ([6]; ip): 88 mg/kg

C#CC(C)NC (centres unmarked) [Compound 34]
ED50 [9, 11]: 26 mg/kg
LD50 ([6]; ip, probit analysis): 828 mg/kg

C#CC(C)N(C)C (centres unmarked) [Compound 35]
ED50 [9, 11]: 92 mg/kg

C#CC(C)(C)N [Compound 36]
ED50 [9, 11]: 176 mg/kg
TD50 at 0.5 h [10]: 391 mg/kg
LD50 ([6]; ip): 779 mg/kg

CN1C(=O)CN=C(c2ccccc2)c2cc(Cl)ccc21 [Diazepam]
ED50 [1]: 14.2 ± 5 mg/kg
conditioned avoidance response ([5]; 5 mg/kg i.p.): 57.5%
